Measured values as given in the supplement of paper PMC10307832.

Experiments:
Experiment in all cases: relative viability (nuclei count vs DMSO), 5 days (fraction); higher = more cells survive
Alpelisib + Linsitinib = compound: Cc1nc(NC(=O)N2CCC[C@H]2C(N)=O)sc1-c1ccnc(C(C)(C)C(F)(F)F)c1 [Alpelisib] + C[C@]1(O)C[C@@H](c2nc(-c3ccc4ccc(-c5ccccc5)nc4c3)c3c(N)nccn32)C1 [Linsitinib] (partner 1 µM)
Method in brief: (§1)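 Five library-drug doses in √10 steps were combined with a fixed anchor-drug dose, or a single drug was given alone, by pin tool to lung cancer cell lines in 1536-well plates the day after seeding. Nuclei were stained and counted after 5 days. Relative viability is the nuclei count in treated wells over that in vehicle wells, taken as the median of duplicate plates.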

Alpelisib + Palbociclib = compound: Cc1nc(NC(=O)N2CCC[C@H]2C(N)=O)sc1-c1ccnc(C(C)(C)C(F)(F)F)c1 [Alpelisib] + CC(=O)c1c(C)c2cnc(Nc3ccc(N4CCNCC4)cn3)nc2n(C2CCCC2)c1=O [Palbociclib] (partner 0.5 µM)
Method in brief: as §1

OSI-027 + Pemetrexed = compound: COc1cccc2cc(-c3nc([C@H]4CC[C@H](C(=O)O)CC4)n4ncnc(N)c34)[nH]c12 [OSI-027] + Nc1nc2[nH]cc(CCc3ccc(C(=O)N[C@@H](CCC(=O)O)C(=O)O)cc3)c2c(=O)[nH]1 [Pemetrexed] (partner 0.2 µM)
Method in brief: as §1

Vemurafenib + Alpelisib = compound: CCCS(=O)(=O)Nc1ccc(F)c(C(=O)c2c[nH]c3ncc(-c4ccc(Cl)cc4)cc23)c1F [Vemurafenib] + Cc1nc(NC(=O)N2CCC[C@H]2C(N)=O)sc1-c1ccnc(C(C)(C)C(F)(F)F)c1 [Alpelisib] (partner 2 µM)
Method in brief: as §1

Cell Line: UMC-11
- relative viability (Alpelisib + Linsitinib; first compound 0.04 µM): 0.953
- relative viability (Alpelisib + Linsitinib; first compound 0.1265 µM): 1.03
- relative viability (Alpelisib + Linsitinib; first compound 0.4 µM): 1.09
- relative viability (Alpelisib + Linsitinib; first compound 1.265 µM): 0.995
- relative viability (Alpelisib + Linsitinib; first compound 4 µM): 0.955
- relative viability (Alpelisib + Palbociclib; first compound 0.04 µM): 0.333
- relative viability (Alpelisib + Palbociclib; first compound 0.1265 µM): 0.3
- relative viability (Alpelisib + Palbociclib; first compound 0.4 µM): 0.357
- relative viability (Alpelisib + Palbociclib; first compound 1.265 µM): 0.307
- relative viability (Alpelisib + Palbociclib; first compound 4 µM): 0.328
- relative viability (OSI-027 + Pemetrexed; first compound 0.01 µM): 0.994
- relative viability (OSI-027 + Pemetrexed; first compound 0.03162 µM): 0.77
- relative viability (OSI-027 + Pemetrexed; first compound 0.1 µM): 0.658
- relative viability (OSI-027 + Pemetrexed; first compound 0.3162 µM): 0.585
- relative viability (OSI-027 + Pemetrexed; first compound 1 µM): 0.444
- relative viability (Vemurafenib + Alpelisib; first compound 0.03162 µM): 0.954
- relative viability (Vemurafenib + Alpelisib; first compound 0.1 µM): 0.947
- relative viability (Vemurafenib + Alpelisib; first compound 0.3162 µM): 1.09
- relative viability (Vemurafenib + Alpelisib; first compound 1 µM): 0.91
